Assays:
[1] = Metabolic stability in rat liver microsomes; format: in vitro ADME
Excerpt: (§1) A reference compound, REF1250, was used in this study: […]

[2] = Metabolic stability in dog liver microsomes; format: in vitro ADME
Excerpt: as §1

[3] = Metabolic stability in human liver microsomes; format: in vitro ADME
Excerpt: as §1

[4] = tested on: primary mouse B-cells; experiment: Primary B-cell activation (CD86+ FACS) in response to LPS; format: cell-based; conditions: for IC50: full dose response
Excerpt: Compounds Block Activation of Primary Mouse B-Cells:
JNK is known to mediate activation of B-cells in response to lypopolysacharide (LPS) through the TLR4 signaling pathway as well as in response to B-cell receptor activation (stimulated e.g. with an anti-IgM antibody). Primary B-cells were isolated from the spleen of mice and assessed for their B-cell activation, via FACS analysis of CD86+ expression, in response to LPS in the presence or absence of the covalent MKK7 enzyme inhibitors presented herein, as well as a positive control JNK inhibitor, JNK-IN-8.
At 10 μM and 2 hours pre-incubation before stimulation, GO80 was able to inhibit 60% of the CD86+ response.

[5] = tested on: pJNK in 3T3 WT cells; experiment: In-cell western (ICW) pJNK inhibition in 3T3 WT; format: cell-based
Method: (§2) HEK293, Beas2B and 3T3 cells were plated 24 hours before procedure on 384 well clear bottom black flat plates (Corning) pre-coated with Fibronectin (Sigma) diluted in PBS to a concentration of 5 μg/ml 45 minutes prior to cells introduction. Cells were plated using Multidrop™ Combi reagent dispenser (Thermo Fisher Scientific). Compound, reagents and antibody dispensing as well as washes were performed with a CyBio liquid handler (Analytik). Cells were pre-incubated with a small molecule or up to 1% DMSO for 2 h before fixation. HEK293, 3T3 or Beas2B cells were treated with 0.6M/0.2M/0.2M D-Sorbitol/PBS (Sigma) for 20/40/40 min. respectively, before fixation. Media was removed and wells were immediately fixed with 150 μl per well of 3.7% formaldehyde/PBS fixing solution for 20 min. Formaldehyde was then aspired and cells were permeabilized with 150 μl of 0.5% Triton x-100/PBS solution for 10 min. After aspiration cells were washed with ice-cold methanol and stored at −20° C., for 10 min. Methanol was aspired and cells were blocked with 150 μl blocking buffer (LICOR) for 90 min. Primary antibody Phospho-SAPK/JNK T183/Y185 (CST; 9251S) was diluted 1:1000 in blocking buffer and was applied 50 μl per well, except control wells to which only blocking buffer was applied, O.N. (16 h) at 4° C. with mild shaking. Primary antibody was aspired, wells were washed with 150 μl 0.1% Tween20/PBS (Sigma) washing solution three times for 7 min. IRDye® 800CW Goat anti-Rabbit IgG Secondary antibody (LICOR) was then diluted 1:1200 in blocking buffer with 50 μl applied per well on control wells only (no CellTag control), then CellTag700 (1:2000) was added to the solution and 50 μl were added to all experiment wells, for 1 h at room temperature. Wells were aspired and washed again with 150 μl 0.1% Tween20/PBS (Sigma) washing solution three times for 7 min. plate was dried and scanned with Odyssey CLx imaging system at 700 nm and 800 nm (Licor). Wells signals were analyzed with Odyssey software. The signal was normalized by the CellTag700 signal.
(§3) To rapidly assess the cellular activity (EC50) with full dose response curves of the MKK7 covalent inhibitors, according to some embodiments of the present invention, an in-cell western assay was adapted to a 384 well plate format over traditional western blot, and monitored phospho-JNK (pJNK) levels in response to osmotic shock. We first characterized the dynamics of pJNK in response to sorbitol. Sufficient dynamic range for pJNK is achieved at 20 minutes in HEK293 cells and at 40 minutes in 3T3 and Beas2B cells. The compound's activity was assessed by pre-treating cells with either compound or DMSO for 2 hours, followed by Sorbitol stimulation. The response of pJNK, and its substrates, pc-Jun and pATF2, was measured, as well as pP38, which is a substrate of MKK4 but not MKK7, and pERK in HEK293 cells, and the results are presented in Table 5 below.
Wildtype 3T3 cells, 3T3 MKK7 double knock-out (MKK7^−/−) cells and MKK4/7 double knockouts (MKK4/7^−/−) were used to validate on target activity of the MKK7 covalent inhibitors presented herein.

[6] = Metabolic stability in mouse liver microsomes; format: in vitro ADME
Excerpt: as §1

[7] = Metabolic stability in monkey liver microsomes; format: in vitro ADME
Excerpt: as §1

[8] = tested on: JNK activation; experiment: KTR reporter live cell imaging of JNK activation; format: cell-based; conditions: Homo sapiens; HEK293 cells; read-out: EC50 of test and control compounds
Excerpt: As an orthogonal assay for the ICW we used a KTR reporter cell line for JNK activation via live cell imaging.

[9] = tested on: pJNK in HEK293 cells; experiment: In-cell western (ICW) pJNK inhibition in HEK293; format: cell-based; conditions: Homo sapiens, HEK293, HEK293, ICW, 2 h pre-incubation, sorbitol stimulation
Method: as §2, §3

[10] = target: T1, MKK7 in MDA-MB-231 lysate (Homo sapiens, UniProt O14733); experiment: Proteomic selectivity labeling in human cell lysate (MDA-MB-231); format: binding
T1 construct: endogenous in cells; host or cells: MDA-MB-231
T1 sequence (O14733 1-419): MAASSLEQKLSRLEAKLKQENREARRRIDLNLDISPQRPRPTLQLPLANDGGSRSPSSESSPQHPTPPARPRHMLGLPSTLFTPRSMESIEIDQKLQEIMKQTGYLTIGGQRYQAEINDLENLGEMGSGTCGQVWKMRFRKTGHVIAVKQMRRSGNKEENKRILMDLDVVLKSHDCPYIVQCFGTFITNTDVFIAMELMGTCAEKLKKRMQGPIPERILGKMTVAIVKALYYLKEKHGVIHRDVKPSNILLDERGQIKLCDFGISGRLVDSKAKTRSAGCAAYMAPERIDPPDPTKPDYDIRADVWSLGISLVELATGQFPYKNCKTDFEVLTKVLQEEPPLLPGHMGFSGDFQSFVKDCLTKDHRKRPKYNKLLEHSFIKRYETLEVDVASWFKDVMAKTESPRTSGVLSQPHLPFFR

With `C=CC(=O)Nc1cc(C(=O)NC)cc(-c2n[nH]c3ccccc23)c1` [PCM487] the “% remaining @ 40 min” value [1] was 72%, the Halflife [1] was >40 min and the “% remaining @ 40 min” value [2] was 71%. For the same molecule, the Halflife [2] was >40 min, the “% remaining @ 40 min” value [3] was 38% and the Halflife [3] was 27 min. The “inhibition of the CD86+ response” value ([4]; 10 μM, 2 hours pre-incubation) was ~90%, the IC50 [4] was 4.9 µM and the EC50 ([5]; 3T3 WT, ICW, 2 h pre-incubation, sorbitol stimulation, listed as PCM87) was 4.06 µM. The “% remaining @ 40 min” value [6] was 3%, the Halflife [6] was 8 min and the “% remaining @ 40 min” value [7] was 41%. It also gave a Halflife [7] of 33 min.
In the case of `CCC(=O)Nc1cccc(-c2[nH]nc3ccccc23)c1` [PCM520], the EC50 [8] is reported as > 10 µM.
With `C=CC(=O)Nc1cccc(-c2nn(C)c3ccccc23)c1` [PCM521] the EC50 [8] was > 10 µM.
With `C=CC(=O)N[C@@H]1CCCN(c2[nH]nc3ccccc23)C1` [PCM532] the “activity in ICW in 3T3 cells” value ([5]; 3T3 cells) was “inactive” and the EC50 [9] was > 10 µM.
With `C#CCNC(=O)c1cc(NC(=O)C=C)cc(-c2n[nH]c3ccccc23)c1` [PCM548] the proteins labeled ([10]; at 2 μM) was “the only target”, the proteins labeled ([10]; at 5 μM) was “MKK7 seems to be the dominant target” and the proteins labeled ([10]; at 10 μM) was “labels many proteins”. It also gave an inhibition at 10 µM ([4]; Mus musculus, B-cell, 10 μM, 2 hours pre-incubation) of ~90% and an IC50 ([4]; Mus musculus, B-cell) of 5.3 µM.

Reference: patent publication US20210238173A1, “MITOGEN-ACTIVATED PROTEIN KINASE KINASE 7 INHIBITORS” (Yeda Research and Development Co. Ltd., priority 2018, published 2021)
